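Assay format: 96-well plates, 48-hour exposure. GI50 = concentration required for 50% inhibition of growth.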 Calls of active or inactive are those of the source. Cut-off read from the data, not from the text of the source: active = GI50 up to about 1.1 µM and inactive = higher.
What was measured:
Experiment in all cases: DTP human tumour cell line panel, 48 h
COLO 205 = system: COLO 205
NCI-H460 = system: NCI-H460
HOP-62 = system: HOP-62
NCI-H522 = system: NCI-H522
NCI/ADR-RES = system: NCI/ADR-RES
U-251 = system: U-251
MDA-MB-435 = system: MDA-MB-435
SNB-19 = system: SNB-19
OVCAR-5 = system: OVCAR-5
SN12C = system: SN12C
HCT-15 = system: HCT-15
SF-539 = system: SF-539
786-0 = system: 786-0
HCT-116 = system: HCT-116
RPMI-8226 = system: RPMI-8226
MDA-N = system: MDA-N
KM12 = system: KM12
SF-268 = system: SF-268
NCI-H23 = system: NCI-H23
SK-MEL-2 = system: SK-MEL-2

Structure (SMILES) | GI50 (COLO 205) | GI50 (NCI-H460) | GI50 (HOP-62) | GI50 (NCI-H522) | GI50 (NCI/ADR-RES) | GI50 (U-251) | GI50 (MDA-MB-435) | GI50 (SNB-19) | GI50 (OVCAR-5) | GI50 (SN12C) | GI50 (HCT-15) | GI50 (SF-539) | GI50 (786-0) | GI50 (HCT-116) | GI50 (RPMI-8226) | GI50 (MDA-N) | GI50 (KM12) | GI50 (SF-268) | GI50 (NCI-H23) | GI50 (SK-MEL-2)
Nn1c(-c2ccccc2)nn(C(=O)c2ccccc2)c1=O | > 100 µM (inactive) | > 100 µM (inactive) | > 100 µM (inactive) | > 100 µM (inactive) | > 100 µM (inactive) | > 100 µM (inactive) | > 100 µM (inactive) | > 100 µM (inactive) | > 100 µM (inactive) | 87.1 µM (inactive) | > 100 µM | > 100 µM (inactive) | > 100 µM (inactive) | > 100 µM (inactive) | > 100 µM (inactive) | > 100 µM (inactive) | > 100 µM (inactive) | > 100 µM (inactive) | > 100 µM (inactive) | 
COC(=O)c1c2c(cc3c1CC1(Cc4ccc(C(C)=O)cc4C1)C3)CCC2 (stereo not given) | 31.9 µM (inactive) | 42.2 µM (inactive) | 91.2 µM (inactive) | 21 µM (inactive) | 21.3 µM (inactive) | 50.7 µM (inactive) | 6.92 µM (inactive) |  | > 100 µM (inactive) | 19.7 µM (inactive) | 31.8 µM | 85.3 µM (inactive) | 51.8 µM (inactive) | 36.3 µM (inactive) | 24.7 µM (inactive) | 7.64 µM (inactive) | 17.6 µM (inactive) | 83.2 µM (inactive) | 46.5 µM (inactive) | 
C/C=C\C(CC(=O)O)CC(=O)NCCC1CN(S(=O)(=O)C(F)(F)F)c2ccccc21 (stereo not given) | > 100 µM (inactive) | > 100 µM (inactive) | > 100 µM (inactive) | > 100 µM (inactive) | > 100 µM (inactive) | > 100 µM (inactive) | > 100 µM (inactive) | > 100 µM (inactive) | > 100 µM (inactive) |  | > 100 µM |  | > 100 µM (inactive) | > 100 µM (inactive) | > 100 µM (inactive) | > 100 µM (inactive) | > 100 µM (inactive) | > 100 µM (inactive) | > 100 µM (inactive) | > 100 µM (inactive)
Cc1ccc(/C=c2\c(=O)[nH]c3nc4ccccc4c(=O)n23)cc1 | 18.3 µM (inactive) |  | > 100 µM (inactive) | 29 µM (inactive) | 39.4 µM (inactive) | 19.9 µM (inactive) | 24.9 µM (inactive) | 34.9 µM (inactive) | > 100 µM (inactive) | 28.8 µM (inactive) | 34.8 µM | 18.8 µM (inactive) | 39.4 µM (inactive) | 28.5 µM (inactive) | 22.9 µM (inactive) | 23.8 µM (inactive) | 45.7 µM (inactive) | 45.5 µM (inactive) | 34.4 µM (inactive) | 62.2 µM (inactive)
CC(C)Oc1cc(O)c2c(c1)OCC=C2CCC(=O)O | 16.2 µM (inactive) | 33 µM (inactive) | 30.5 µM (inactive) | 21.2 µM (inactive) | 28.4 µM (inactive) | 67.1 µM (inactive) | 23.8 µM (inactive) | 38 µM (inactive) | 31.8 µM (inactive) | 21.3 µM (inactive) | 23.2 µM |  | 26.3 µM (inactive) | 20.4 µM (inactive) | 24.4 µM (inactive) | 21.7 µM (inactive) | 31.5 µM (inactive) | 40.6 µM (inactive) | 37.2 µM (inactive) | 26.8 µM (inactive)
CC(C)C1=CC(=O)C(C)(C2C(O)CC3(C)C4CC=C5C(CCC(OC6OC(CO)C(O)C(O)C6OC6OC(C)C(O)C(O)C6O)C5(C)C)C4(C)C(=O)CC23C)O1 (stereo not given) | > 100 µM (inactive) | > 100 µM (inactive) | > 100 µM (inactive) | > 100 µM (inactive) | > 100 µM (inactive) | > 100 µM (inactive) | > 100 µM (inactive) | > 100 µM (inactive) | > 100 µM (inactive) | > 100 µM (inactive) | > 100 µM | > 100 µM (inactive) | > 100 µM (inactive) | > 100 µM (inactive) | > 100 µM (inactive) | > 100 µM (inactive) | > 100 µM (inactive) | > 100 µM (inactive) | > 100 µM (inactive) | 
CC(=O)C1C(=O)C(=O)N(c2ccc([N+](=O)[O-])cc2Cl)C1=O (stereo not given) | > 100 µM (inactive) | > 100 µM (inactive) | > 100 µM (inactive) | > 100 µM (inactive) | > 100 µM (inactive) | > 100 µM (inactive) | > 100 µM (inactive) | > 100 µM (inactive) | > 100 µM (inactive) | > 100 µM (inactive) | > 100 µM | > 100 µM (inactive) | > 100 µM (inactive) | > 100 µM (inactive) |  | > 100 µM (inactive) | > 100 µM (inactive) | > 100 µM (inactive) | > 100 µM (inactive) | > 100 µM (inactive)
Cn1c(S)nnc1-c1csc(-c2ccc(Cl)cc2)n1 | > 100 µM (inactive) | 21.3 µM (inactive) | 15.4 µM (inactive) | 19.4 µM (inactive) | 25.2 µM (inactive) | > 10 µM (inactive) | > 100 µM (inactive) | 17.5 µM (inactive) | 34.4 µM (inactive) | 38.8 µM (inactive) | 53.8 µM | 22.2 µM (inactive) | 17 µM (inactive) | 17.7 µM (inactive) |  | 61 µM (inactive) | > 100 µM (inactive) | 29.3 µM (inactive) | 15 µM (inactive) | 
COc1cc(S(=O)(=O)Nc2ccc(-c3csc(/N=C\c4ccccc4O)n3)cc2)ccc1Cl | 41.2 µM (inactive) |  | 65.3 µM (inactive) | 37.8 µM (inactive) | > 100 µM (inactive) |  | 36.1 µM (inactive) | 39.3 µM (inactive) | > 100 µM (inactive) | 65.2 µM (inactive) | 51.4 µM | 55.7 µM (inactive) | > 100 µM (inactive) | 43.1 µM (inactive) | 29.6 µM (inactive) | 33.9 µM (inactive) | 38.1 µM (inactive) | 42 µM (inactive) | 52.7 µM (inactive) | 29.2 µM (inactive)
COc1ccc(OC)c(/C=C2/C(=O)N/C(=N\C(C)=O)N2C)c1 | > 100 µM (inactive) | > 100 µM (inactive) | > 100 µM (inactive) | > 100 µM (inactive) | > 100 µM (inactive) | > 100 µM (inactive) | > 100 µM (inactive) | > 100 µM (inactive) | > 100 µM (inactive) | > 100 µM (inactive) | > 100 µM | > 100 µM (inactive) | > 100 µM (inactive) | > 100 µM (inactive) |  | > 100 µM (inactive) | > 100 µM (inactive) | > 100 µM (inactive) | > 100 µM (inactive) | > 100 µM (inactive)
NC(=S)SC1=NC(=O)C2(NN1)c1ccccc1-c1ccccc12 | > 10 µM (inactive) | 8.59 µM (inactive) | > 10 µM (inactive) | 4.27 µM (inactive) | 6.84 µM (inactive) |  | > 10 µM (inactive) | > 10 µM (inactive) |  | > 10 µM (inactive) | > 10 µM | > 10 µM (inactive) | > 10 µM (inactive) | > 10 µM (inactive) | 5.12 µM (inactive) | > 10 µM (inactive) | > 10 µM (inactive) | > 10 µM (inactive) | > 10 µM (inactive) | 
Cc1coc2c1[C@@H](O)[C@@]1(C)[C@H](CCC[C@@H]1C)C2 | 22.6 µM (inactive) | 45.5 µM (inactive) | 40.5 µM (inactive) | 25.3 µM (inactive) | 24.8 µM (inactive) |  | 15.1 µM (inactive) | 72.9 µM (inactive) | 67 µM (inactive) | 24.7 µM (inactive) | 23.8 µM | 21.5 µM (inactive) | 34.8 µM (inactive) | 33.5 µM (inactive) | 31.8 µM (inactive) | 20.7 µM (inactive) | 85.3 µM (inactive) | 34.6 µM (inactive) | 50.9 µM (inactive) | 
CCCC(=O)OC1CC(n2cc(F)c(=O)[nH]c2=O)OC1CO (stereo not given) | 4.71 µM (inactive) | 0.0948 µM (active) | 0.0583 µM (active) | 6.34 µM (inactive) | > 2.55 µM (inactive) | > 5.24 µM (inactive) | 2.79 µM (inactive) |  | > 10 µM (inactive) | 0.317 µM (active) | > 7.64 µM | 0.00859 µM (active) | 0.342 µM (active) | 0.731 µM (active) |  | 1.63 µM (inactive) | > 10 µM (inactive) | 0.0356 µM (active) | 0.0682 µM (active) | > 10 µM (inactive)
C=C(C)CCC(=O)[C@](C)(O)[C@H]1[C@H](O)C[C@@]2(C)[C@@H]3CCc4c(cc(OC5OC(CO)C(O)C(O)C5O)c(O)c4C)C3(C)C(=O)C[C@]12C (stereo not given in full) | > 100 µM (inactive) | > 100 µM (inactive) | > 100 µM (inactive) | > 100 µM (inactive) | > 100 µM (inactive) | > 100 µM (inactive) | > 100 µM (inactive) | > 100 µM (inactive) | > 100 µM (inactive) | > 100 µM (inactive) | > 100 µM | > 100 µM (inactive) | > 100 µM (inactive) | > 100 µM (inactive) |  | > 100 µM (inactive) | > 100 µM (inactive) | > 100 µM (inactive) | > 100 µM (inactive) | > 100 µM (inactive)
O=C1NNC2(C(=O)N1)c1ccccc1-c1ccccc12 | > 10 µM (inactive) | > 10 µM (inactive) | > 10 µM (inactive) | > 10 µM (inactive) | > 10 µM (inactive) |  | > 10 µM (inactive) | > 10 µM (inactive) |  | > 10 µM (inactive) | > 10 µM | > 10 µM (inactive) | > 10 µM (inactive) | > 10 µM (inactive) | > 10 µM (inactive) | > 10 µM (inactive) | > 10 µM (inactive) | > 10 µM (inactive) | > 10 µM (inactive) | 

From ChEMBL document CHEMBL1201862, “PubChem BioAssay data set” (2004)
